Tests used:
Format in all cases: in vivo
rice plant = test: Test Example 5: effect on crop by foliage application, plastic box (symbol b); conditions: 320 g/ha, 3 weeks after application
Summary of the method: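 In a plastic box 7 cm deep filled with sterilized diluvial soil, seeds of crops and weeds such as Digitaria ciliaris, Avena fatua and Amaranthus retroflexus are sown in spots and covered with about 1.5 cm of soil before greenhouse growth at 25–30° C.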

Abutilon theophrasti = test: Test Example 4: herbicidal effect by soil treatment (symbol M); conditions: for M: Abutilon theophrasti, herbicidal effect grade: 320 g/ha
Summary of the method: (§1)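 Seeds were sown in sterilized diluvial soil, covered with about 1.5 cm of soil, and the soil surface was sprayed with a water-diluted emulsion of the compound at a predetermined rate. Plants grew in a greenhouse at 25° C. to 30° C.; effects were scored visually 3 weeks after application.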

Apera spica-venti = test: Test Example 4: herbicidal effect by soil treatment (symbol L); conditions: for L: Apera spica-venti, herbicidal effect grade: 320 g/ha
Summary of the method: as §1

Alopecurus myosuroides [1] = test: Test Example 5: herbicidal effect by foliage application, plastic box (symbol J); conditions: 320 g/ha, 3 weeks after application
Summary of the method: (§2)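 Herbicide, formulated as an emulsion and diluted in water, is sprayed onto the aerial parts of 14-day seedlings. These were grown at 25° C. to 30° C. in sterilized diluvial soil; effects are graded after 3 weeks.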

Stellaria media = test: Test Example 4: herbicidal effect by soil treatment (symbol P); conditions: for P: Stellaria media, herbicidal effect grade: 320 g/ha
Summary of the method: as §1

Monochoria vaginalis = test: Test Example 2: herbicidal activity, application during weed generation in submerged conditions (symbol C); conditions: Table 23; application herbicide amount 320 g/ha; grade 0-5 by criteria of Test Example 1
Summary of the method: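 Submerged alluvial soil (4 cm) sown with mixed seed; greenhouse 25–30° C. 1–2 leaf: diluted emulsion onto water surface, preset dose. Visual score, 3 wk.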

Veronica persica = test: Test Example 4: herbicidal effect by soil treatment (symbol R); conditions: for R: Veronica persica, herbicidal effect grade: 320 g/ha
Summary of the method: as §1

Avena fatua = test: Test Example 4: herbicidal effect by soil treatment (symbol I); conditions: for I: Avena fatua, herbicidal effect grade: 320 g/ha
Summary of the method: as §1

[2] = system: Echinochloa crus-galli var. crus-galli; test: Test Example 5: herbicidal effect by foliage application, plastic box (symbol H); conditions: 320 g/ha, 3 weeks after application
Summary of the method: as §2

Chenopodium album = test: Test Example 5: herbicidal effect by foliage application, plastic box (symbol O); conditions: 320 g/ha, 3 weeks after application
Summary of the method: as §2

soybean = test: Test Example 4: effect on crop by soil treatment (symbol d); conditions: for d: soybean, effect grade on crop: 320 g/ha
Summary of the method: (§3)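 Plants are raised in a greenhouse (25° C. to 30° C.) from spot-sown seed, which sits under about 1.5 cm of sterilized diluvial soil in a box shared with weed species.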

Digitaria ciliaris = test: Test Example 5: herbicidal effect by foliage application, plastic box (symbol F); conditions: 320 g/ha, 3 weeks after application
Summary of the method: as §2

Alopecurus myosuroides [3] = test: Test Example 4: herbicidal effect by soil treatment (symbol J); conditions: for J: Alopecurus myosuroides, herbicidal effect grade: 320 g/ha
Summary of the method: as §1

Scirpus juncoides = test: Test Example 1: herbicidal activity, application before weed generation in submerged conditions (symbol B); conditions: application herbicide amount 320 g/ha
Summary of the method: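 Mixed weed seeds sown in alluvial soil under 4 cm of water, with rice seedlings at the 2.5-leaf stage added. Same-day treatment: emulsion diluted to a set herbicide amount onto the water. Three weeks at 25–30 °C, then graded on a six-step scale.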

wheat = test: Test Example 4: effect on crop by soil treatment (symbol e); conditions: for e: wheat, effect grade on crop: 320 g/ha
Summary of the method: as §3

Setaria viridis = test: Test Example 4: herbicidal effect by soil treatment (symbol G); conditions: for G: Setaria viridis, herbicidal effect grade: 320 g/ha
Summary of the method: as §1

rice = test: Test Example 4: effect on crop by soil treatment (symbol b); conditions: for b: directly sowed rice plant, effect grade on crop: 320 g/ha
Summary of the method: as §3

[4] = application herbicide amount 320 g/ha

Structure (SMILES)	b: directly sowed rice plant, effect on crop (criteria 0-5) (rice plant)	M: Abutilon theophrasti, herbicidal effect grade (Abutilon theophrasti)	L: Apera spica-venti, herbicidal effect grade (Apera spica-venti)	J: Alopecurus myosuroides, herbicidal effect (criteria 0-5) (Alopecurus myosuroides [1])	P: Stellaria media, herbicidal effect grade (Stellaria media)	Herbicidal effect grade, C: Monochoria vaginalis (Monochoria vaginalis)	R: Veronica persica, herbicidal effect grade (Veronica persica)	I: Avena fatua, herbicidal effect grade (Avena fatua)	H: Echinochloa crus-galli var. crus-galli, herbicidal effect (criteria 0-5) [2]	O: Chenopodium album, herbicidal effect (criteria 0-5) (Chenopodium album)	d: soybean, effect grade on crop (soybean)	F: Digitaria ciliaris, herbicidal effect (criteria 0-5) (Digitaria ciliaris)	J: Alopecurus myosuroides, herbicidal effect grade (Alopecurus myosuroides [3])	Herbicidal effect grade, B: Scirpus juncoides (Scirpus juncoides)	e: wheat, effect grade on crop (wheat)	G: Setaria viridis, herbicidal effect grade (Setaria viridis)	b: directly sowed rice plant, effect grade on crop (rice)	further results
CON=C(C)CC1CC(OS(=O)(=O)N(C)C)=C(c2c(C)cc(C)cc2C)C1=O (centres unmarked) [1-122]	5 (Herbicidal ratio of 90% or more (almost completely withered))	0 (Herbicidal ratio of 5% or lower (almost no effect))	1 (Herbicidal ratio of 5% or higher and lower than 20%)	5 (Herbicidal ratio of 90% or more (almost completely withered))	0 (Herbicidal ratio of 5% or lower (almost no effect))	0 (Herbicidal ratio of 5% or lower (almost no effect))	0 (Herbicidal ratio of 5% or lower (almost no effect))	2 (Herbicidal ratio of 20% or higher and lower than 40%)	5 (Herbicidal ratio of 90% or more (almost completely withered))	0 (Herbicidal ratio of 5% or lower (almost no effect))	0 (Herbicidal ratio of 5% or lower (almost no effect))	4 (Herbicidal ratio of 70% or higher and lower than 90%)	5 (Herbicidal ratio of 90% or more (almost completely withered))	5 (Herbicidal ratio of 90% or more (almost completely withered))	0 (Herbicidal ratio of 5% or lower (almost no effect))	3 (Herbicidal ratio of 40% or higher and lower than 70%)	4 (Herbicidal ratio of 70% or higher and lower than 90%)	–
CC#Cc1cc(C)c(C2=C(O)CC(CC(=NOC)C3CC3)C2=O)c(C)c1 (centres unmarked) [9-008]	–	–	–	–	–	3 (Herbicidal ratio of 40% or higher and lower than 70%)	–	–	–	–	–	–	–	–	–	–	–	b: directly sowed rice plant, effect on crop grade (rice plant): 5 (Herbicidal ratio of 90% or more (almost completely withered)); Herbicidal effect grade, M: Abutilon theophrasti (Abutilon theophrasti; [4]): 4 (Herbicidal ratio of 70% or higher and lower than 90%); Herbicidal effect grade, L: Apera spica-venti (Apera spica-venti; [4]): 5 (Herbicidal ratio of 90% or more (almost completely withered)); J: Alopecurus myosuroides, herbicidal effect grade (Alopecurus myosuroides [1]): 5 (Herbicidal ratio of 90% or more (almost completely withered)); Herbicidal effect grade, P: Stellaria media (Stellaria media; [4]): 0 (Herbicidal ratio of 5% or lower (almost no effect)); Herbicidal effect grade, R: Veronica persica (Veronica persica; [4]): 3 (Herbicidal ratio of 40% or higher and lower than 70%); Herbicidal effect grade, I: Avena fatua (Avena fatua; [4]): 3 (Herbicidal ratio of 40% or higher and lower than 70%); H: Echinochloa crus-galli var. crus-galli, herbicidal effect grade [2]: 5 (Herbicidal ratio of 90% or more (almost completely withered)); O: Chenopodium album, herbicidal effect grade (Chenopodium album): 3 (Herbicidal ratio of 40% or higher and lower than 70%); Effect on crop grade, d: soybean (soybean; [4]): 0 (Herbicidal ratio of 5% or lower (almost no effect)); F: Digitaria ciliaris, herbicidal effect grade (Digitaria ciliaris): 5 (Herbicidal ratio of 90% or more (almost completely withered)); Herbicidal effect grade, J: Alopecurus myosuroides (Alopecurus myosuroides [3]; [4]): 5 (Herbicidal ratio of 90% or more (almost completely withered)); B (Scirpus juncoides) herbicidal effect grade (Scirpus juncoides): 5 (Herbicidal ratio of 90% or more (almost completely withered)); Effect on crop grade, e: wheat (wheat; [4]): 5 (Herbicidal ratio of 90% or more (almost completely withered)); Herbicidal effect grade, G: Setaria viridis (Setaria viridis; [4]): 5 (Herbicidal ratio of 90% or more (almost completely withered)); Effect on crop grade, b: directly sowed rice plant (rice; [4]): 5 (Herbicidal ratio of 90% or more (almost completely withered))
CON=C(C)CC1CC(OC(=O)c2cnoc2C2CC2)=C(c2c(C)cc(C)cc2C)C1=O (centres unmarked) [1-103]	5 (Herbicidal ratio of 90% or more (almost completely withered))	5 (Herbicidal ratio of 90% or more (almost completely withered))	4 (Herbicidal ratio of 70% or higher and lower than 90%)	5 (Herbicidal ratio of 90% or more (almost completely withered))	0 (Herbicidal ratio of 5% or lower (almost no effect))	0 (Herbicidal ratio of 5% or lower (almost no effect))	0 (Herbicidal ratio of 5% or lower (almost no effect))	3 (Herbicidal ratio of 40% or higher and lower than 70%)	5 (Herbicidal ratio of 90% or more (almost completely withered))	2 (Herbicidal ratio of 20% or higher and lower than 40%)	1 (Herbicidal ratio of 5% or higher and lower than 20%)	5 (Herbicidal ratio of 90% or more (almost completely withered))	5 (Herbicidal ratio of 90% or more (almost completely withered))	5 (Herbicidal ratio of 90% or more (almost completely withered))	4 (Herbicidal ratio of 70% or higher and lower than 90%)	5 (Herbicidal ratio of 90% or more (almost completely withered))	5 (Herbicidal ratio of 90% or more (almost completely withered))	–
CON=C(C)CC1CC(OC(=O)c2cc(C)on2)=C(c2c(C)cc(C)cc2C)C1=O (centres unmarked) [1-100]	5 (Herbicidal ratio of 90% or more (almost completely withered))	4 (Herbicidal ratio of 70% or higher and lower than 90%)	5 (Herbicidal ratio of 90% or more (almost completely withered))	5 (Herbicidal ratio of 90% or more (almost completely withered))	0 (Herbicidal ratio of 5% or lower (almost no effect))	3 (Herbicidal ratio of 40% or higher and lower than 70%)	1 (Herbicidal ratio of 5% or higher and lower than 20%)	3 (Herbicidal ratio of 40% or higher and lower than 70%)	5 (Herbicidal ratio of 90% or more (almost completely withered))	1 (Herbicidal ratio of 5% or higher and lower than 20%)	2 (Herbicidal ratio of 20% or higher and lower than 40%)	5 (Herbicidal ratio of 90% or more (almost completely withered))	5 (Herbicidal ratio of 90% or more (almost completely withered))	5 (Herbicidal ratio of 90% or more (almost completely withered))	5 (Herbicidal ratio of 90% or more (almost completely withered))	5 (Herbicidal ratio of 90% or more (almost completely withered))	5 (Herbicidal ratio of 90% or more (almost completely withered))	–
